Experimental findings from US4977152A, “Novel tricyclic derivatives which are agonists of cholinergic receptors, and drugs in which they are present” (Societe Anonyme: Sanofi, priority 1986, dated 1990) are described below.

For assay [1], the target named is T1, M1 central muscarinic cholinergic receptors (Mus musculus, UniProt P12657).
T1 construct: The intrastriatal injection of PZ into mice induces rotational behavior; from tissue; host or cells: right striatum of living female mice (Swiss, CD 1)
T1 sequence (P12657 1-460): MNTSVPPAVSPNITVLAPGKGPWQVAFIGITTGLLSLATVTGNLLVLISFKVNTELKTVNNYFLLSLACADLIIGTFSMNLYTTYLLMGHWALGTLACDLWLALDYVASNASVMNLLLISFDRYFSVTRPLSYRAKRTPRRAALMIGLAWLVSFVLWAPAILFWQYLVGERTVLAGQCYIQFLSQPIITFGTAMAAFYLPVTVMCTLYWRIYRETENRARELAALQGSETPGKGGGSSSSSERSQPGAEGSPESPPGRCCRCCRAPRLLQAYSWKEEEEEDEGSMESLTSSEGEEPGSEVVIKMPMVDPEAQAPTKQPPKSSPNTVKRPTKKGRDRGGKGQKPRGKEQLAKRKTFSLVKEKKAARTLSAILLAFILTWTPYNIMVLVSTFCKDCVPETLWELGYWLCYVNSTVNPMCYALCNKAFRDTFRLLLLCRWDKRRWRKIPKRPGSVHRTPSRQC
Put plainly: Antagonism of rotational behavior induced by intrastriatal injection of pirenzepine in mice. The assay is classed as in vivo, mice (female, Swiss, CD 1). The settings on record: ip, read-out: Pirenzepine antagonism ED50. As to the method:
Pirenzepine (PZ) is a specific antagonist of M1 central muscarinic cholinergic receptors. The intrastriatal injection of PZ into mice induces rotational behavior. The antagonism of this behavior by the products according to the invention was studied.
The products according to the invention are injected intraperitoneally (i.p.) after solubilization in distilled water or suspension in a 5% solution of gum arabic. The control animals receive an injection of the pure solvent under the same conditions.
The animals used are female mice (Swiss, CD 1, Charles River, France) with a body weight of between 25 and 30 grams.
Pirenzepine is dissolved in a phosphate buffer; the pH of the solution is 6.
The products to be studied or their solvents are injected intraperitoneally, in a volume of 0.4 ml per 20 g of body weight, 15 minutes before a direct injection of pirenzepine at a dose of […] into the right striatum of the mouse, according to the method described by p.
The number of contralateral rotations (rotations in the opposite direction to the side injected) was counted for three 2-minute periods after the injection of pirenzepine: minutes 2 to 4, 8 to 10 and 13 to 15. Each treatment includes 3 to 4 doses and 10 animals per dose. For each treatment, the total number of rotations and the percentage antagonism compared with the control group are calculated.

For assay [2], the target named is T2, M1-type muscarinic cholinergic receptor (Rattus norvegicus, UniProt P08482).
T2 sequence (P08482 1-460): T1 sequence (P12657 1-460) with P309S
Put plainly: Test for affinity for the M1-type muscarinic cholinergic receptor: displacement of [3H]pirenzepine on rat hippocampus homogenate. The assay is classed as binding. The settings on record: for IC50: rat hippocampus homogenate, 1 nM [3H]PZ, 2 h at 4° C., pH 7.40; for r = (M2 /M1): ratio of IC50 M2 (3H-NMS, guinea-pig ileum) to IC50 M1 (3H-pirenzepine, rat hippocampus). The source says: (§1) The M1 -type receptors are concentrated in certain areas of the brain, such as the hippocampus, the cerebral cortex and the striatum, and also in the sympathetic ganglia. These binding sites can be selectively labeled with [^3 H]pirenzepine ([^3 H]PZ). The M2 -type receptors predominate in the heart and ileum and can be labeled with [^3 H]N-methylscopolamine ([^3 H]NMS). To determine the selectivity of our molecules towards the M1 and M2 sites, we studied their interaction in vitro with [^3 H]PZ and [^3 H]NMS bound with a high affinity to membranes of rat hippocampus and membranes of smooth muscle of guinea-pig ileum, respectively.
The interaction of the molecules with M1 -type muscarinic receptors was studied by in vitro measurement, on a homogenate of rat hippocampus, of the displacement of tritiated pirenzepine ([^3 H]PZ) from its specific binding sites. Aliquots (10 μl) of a 5% (w/v) homogenate of rat hippocampus in an Na2 HPO4 buffer (50 mM, pH 7.40) are incubated for 2 h at 4° C. in the presence of [^3 H]pZ ([…]; final concentration: 1 nM) and increasing concentrations of products to be studied. The final volume is 2 ml. The reaction is stopped by centrifugation for 10 min at 50,000 × g. After decantation and washing of the residues, the bound radioactivity is counted by liquid scintillation. The non-specific binding is determined in the presence of 10 μmol/l of atropine sulfate. The 50% inhibitory concentration (IC50) is determined graphically (Ref.: Watson J. D., Roeskoe W. R. and Yamamura H.1., Life Sci., 31, 2019-2029, 1982).
(§2) Table 4 indicates the affinities of the products of the invention for M1 and M2 receptors. The results are expressed as 50% inhibitory concentrations (IC50), i.e. the concentration (in μM) which causes a 50% displacement placement of the tritiated ligand bound to the membrane receptors. The IC50 for displacement of ^3 H-pirenzepine represents the affinity for the M1 receptor; the IC50 for displacement of 3H-NMS represents the affinity for the M2 receptor.

Assay [3] addresses T3, M2-type muscarinic cholinergic receptor (Cavia porcellus, UniProt H0VRN8).
T3 construct: on a homogenate of smooth muscle of guinea-pig ileum; from tissue; host or cells: guinea-pig ileum smooth muscle homogenate
T3 sequence (H0VRN8 1-466): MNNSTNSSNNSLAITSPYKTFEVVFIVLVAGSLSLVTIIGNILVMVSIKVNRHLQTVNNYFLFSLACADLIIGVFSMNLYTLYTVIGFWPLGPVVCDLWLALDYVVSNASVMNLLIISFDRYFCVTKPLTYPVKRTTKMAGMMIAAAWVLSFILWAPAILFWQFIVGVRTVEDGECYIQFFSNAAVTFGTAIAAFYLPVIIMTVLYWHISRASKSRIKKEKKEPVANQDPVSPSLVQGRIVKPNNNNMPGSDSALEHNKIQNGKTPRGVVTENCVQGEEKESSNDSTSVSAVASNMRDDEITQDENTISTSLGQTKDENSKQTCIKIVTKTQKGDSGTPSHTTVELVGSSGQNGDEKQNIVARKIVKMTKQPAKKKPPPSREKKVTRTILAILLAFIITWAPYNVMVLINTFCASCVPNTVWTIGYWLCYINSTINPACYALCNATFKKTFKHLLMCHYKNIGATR
As to the kind of experiment: Test for affinity for the M2-type muscarinic cholinergic receptor: displacement of [3H]N-methylscopolamine on smooth muscle of guinea-pig ileum. The assay is classed as binding. The following applies: guinea-pig ileum smooth muscle homogenate, 0.3 nM [3H]NMS, 20 min at 30° C., pH 7.5.
Excerpt: as §1
The interaction with M2 -type muscarinic receptors was studied by in vitro measurement, on a homogenate of smooth muscle of guinea-pig ileum, of the displacement of tritiated N-methylscopolamine ([^3 H]NMS) from its specific binding sites. Aliquots (50 μl) of a 0.625% (w/v) homogenate of smooth muscle of guinea-pig ileum in MEPES buffer (20 mM) containing NaCl (100 mM) and MgCl2 (10 mM) (final pH: 7.5) are incubated for 20 min at 30° C. in the presence of [^3 H]NMS ([…]; final concentration: 0.3 nM) and increasing concentrations of products to be tested. The final volume is 1 ml. The reaction is stopped by centrifugation for 5 min at 15,000 × g. The non-specific binding is determined in the presence of 10 μmol/l of atropine sulfate (Ref.: Hammer R., Berrie C. P., Birdsall N. I. M., Burgen A. S. V. and Hulme E. C., Nature, 283, 90-92, 1980; Hulme E. C., Birdsall N.1.M., Burgen A. S. V. and Mettha P., Mol. pharmacol., 14, 737-750, 1978).
as §2
(In general: In a radioligand displacement assay an active substance lowers the binding of a labelled ligand.)

Setting [4] is: mice, i.p. 15 minutes before intrastriatal pirenzepine, 50% reduction in number of rotations.

Positions count from the first letter of the chain named. Structures can show the parent of a compound that is named as a salt. Where two headings read alike, the source gives them in different places.

As for `Cc1cc2c(cc1C)-c1nnc(NCCN3CCCC3)cc1CCC2` [SR 44650 A], the ED50 in assay [1] (setting [4]) amounted to 3 mg/kg.

On to `CCN(CC)CCNc1cc2c(nn1)-c1cc(C)c(C)cc1CCC2.Cl.Cl` [SR 44663 A, 3-(2-Diethylaminoethylamino)-9,10-dimethyl-6,7-dihydro-5H-benzocyclohepta[5,6-c]pyridazine dihydrochloride], for which, in assay [2], the half-maximal inhibitory concentration (IC50) is 160 nM and the “r = (M2 /M1)” value stood at 37. The IC50 in assay [3] is 5000 nM. Moreover, the ED50 in assay [1] was determined as 1 mg/kg.

With `Cc1cc2c(cc1C)-c1nnc(NCCN(C(C)C)C(C)C)cc1CCC2` [SR 44664 A], the concentration for half-maximal inhibition (IC50) in assay [2] stood at 180 nM; in assay [3], 2000 nM. The “r = (M2 /M1)” value in assay [2] is given as 11. Besides, the 50% effective dose (ED50) in assay [1] (setting [4]) worked out at 3 mg/kg.

Regarding `c1ccc2c(c1)CCCc1cc(NCCN3CCCCC3)nnc1-2` [SR 44694 A], in assay [2], the 50% inhibitory concentration (IC50) amounted to 150 nM and the “r = (M2 /M1)” value was 24. Besides, the 50% inhibitory concentration (IC50) in assay [3] is 3600 nM.

Regarding `CCN(CC)CCNc1cc2c(nn1)-c1cc(Cl)c(Cl)cc1CCC2.Cl.Cl` [SR 44695 A, 9,10-Dichloro-3-(2-diethylaminoethylamino)-6,7-dihydro-5H-benzocyclohepta[5,6-c]pyridazine dihydrochloride], in assay [2], the concentration for half-maximal inhibition (IC50) is 450 nM and the “r = (M2 /M1)” value is 10. This molecule yielded an IC50 in assay [3] of 4500 nM.

As to `CN(C)CCNc1cc2c(nn1)-c1cc(Cl)c(Cl)cc1CCC2` [SR 44696 A], in assay [2], the half-inhibitory concentration (IC50) amounted to 700 nM and the “r = (M2 /M1)” value was determined as 10. Moreover, the IC50 in assay [3] stood at 6500 nM.

On to `CC(C)N(CCNc1cc2c(nn1)-c1cc([N+](=O)[O-])ccc1CCC2)C(C)C` [SR 44697 A], for which, in assay [2], the half-inhibitory concentration (IC50) was found to be 300 nM and the “r = (M2 /M1)” value came out at 10. In assay [3], this molecule registered an IC50 of 3000 nM.

Take `CCN(CC)CCNc1cc2c(nn1)-c1cc(C)c(C)cc1CCCC2.Cl.Cl` [SR 44703 A, 3-(2-Diethylaminoethylamino)-10,11-dimethyl-5,6,7,8-tetrahydrobenzocycloocta[5,6-c]pyridazine dihydrochloride]: in assay [2], the IC50 came out at 100 nM and the “r = (M2 /M1)” value came to 40. The molecule also showed an IC50 in assay [3] of 4000 nM.

Turning to `Clc1cc2c(cc1Cl)-c1nnc(NCCN3CCCCC3)cc1CCC2` [SR 44705 A], in assay [2], the concentration for half-maximal inhibition (IC50) turned out to be 180 nM and the “r = (M2 /M1)” value amounted to 16. In assay [3], this molecule returned an IC50 of 3000 nM.

With `CCCCN(CCCC)CCNc1cc2c(nn1)-c1cc(C)c(C)cc1CCC2` [SR 44706 A], in assay [2], the half-maximal inhibitory concentration (IC50) worked out at 3600 nM and the “r = (M2 /M1)” value is on record as 8. Besides, in assay [3], the IC50 came to 30000 nM.

Take `O=C1CN(CCNc2cc3c(nn2)-c2ccccc2CCC3)CCO1` [SR 95696 A, 3-Z-(2-Oxomorpholino)ethylamino]-6,7-dihydro-5H-benzocyclohepta[5,6-c]pyridazine hydrochloride]: in assay [1] (setting [4]), the ED50 stood at 3 mg/kg.

In the case of `CCN(CC)CCNc1cc2c(nn1)-c1cc(N)ccc1CCC2` [SR 95776 A, 10-Amino-3-(Z-diethylaminoethylamino)-6,7-dihydro-5H-benzocyclohepta[5,6-c]pyridazine dihydrochloride], in assay [2], the half-inhibitory concentration (IC50) was 200 nM and the “r = (M2 /M1)” value came out at 10. The molecule also registered a concentration for half-maximal inhibition (IC50) in assay [3] of 2000 nM.

Consider `c1ccc2c(c1)CCCc1cc(NCCCN3CCOCC3)nnc1-2` [SR 95817 A], for which the ED50 in assay [1] (setting [4]) was determined as 2 mg/kg.

With `OCCNCCNc1cc2c(nn1)-c1ccccc1CCC2` [SR 95819 A, 3-[2-(2-hydroxyethylamino)ethylamino]-6,7-dihydro-5H-benzocyclohepta[5,6-c]pyridazine], the ED50 in assay [1] (setting [4]) came to 10 mg/kg.

Turning to `Cc1cc2ccccc2c2nnc(NCCN3CCOCC3)cc12` [SR 96057 A, 5-3-(2-morpholinoethylamino)benzo[h]cinnoline dihydrochloride], in assay [2], the IC50 is 3000 nM and the “r = (M2 /M1)” value is 14. For the same molecule, in assay [3], the 50% inhibitory concentration (IC50) is 43000 nM.

Consider `Cl.Cl.O=[N+]([O-])c1cccc2c1CCCc1cc(NCCN3CCOCC3)nnc1-2` [SR 96100 A, 3-(2-Morpholinoethylamino)-8-nitro-6,7-dihydro-5H-benzocyclohepta[5,6-c]pyridazine dihydrochloride], for which, in assay [2], the IC50 is 400 nM and the “r = (M2 /M1)” value is listed as 110. Further, the half-inhibitory concentration (IC50) in assay [3] is 44000 nM.

As to `Cl.Cl.Fc1ccc2c(c1)CCCc1cc(NCCN3CCOCC3)nnc1-2` [SR 96108 A, 9-Fluoro-3 (2-morpholinoethylamino)-6,7-dihydro-5H-benzocyclohepta[5,6-c]pyridazine dihydrochloride], in assay [2], the half-inhibitory concentration (IC50) was found to be 1000 nM and the “r = (M2 /M1)” value was found to be 40. In assay [3], the half-inhibitory concentration (IC50) stood at 40000 nM.

One may read the ED50 as the dose that gives a 50% effect, or the effect in half of the subjects. By IC50 is commonly meant the concentration that gives 50% inhibition.
